Assay results published in ChEMBL document CHEMBL4651402, “Screening of ~5500 FDA-approved drugs and clinical candidates for anti-SARS-CoV-2 activity” (2021).

Tested on: SARS-CoV-2
Test: microbe, parasite or virus in culture
Settings: Severe acute respiratory syndrome coronavirus 2, Vero C1008, 48 h

SMILES	IC50 [µM]	IC50 (read-out: pIC50 (converted)) [µM]
CC(C)NCC(O)c1ccc(NS(C)(=O)=O)cc1 (stereo not given) [SOTALOL]	> 20	> 20
CC(C)NCC(O)c1ccc(O)c(NS(C)(=O)=O)c1 (stereo not given) [SOTERENOL]	> 20	> 20
CN1CCN(c2nc(C3=C(c4c[nH]c5ccccc45)C(=O)NC3=O)c3ccccc3n2)CC1 [SOTRASTAURIN]	> 20	> 20
CNC(=O)c1cc(Oc2ccc3nc(N[C@@H]4CCCC[C@H]4O)sc3c2)ccn1 [SOTULETINIB]	> 20	> 20
C[C@@H]1CN(c2c(F)c(N)c3c(=O)c(C(=O)O)cn(C4CC4)c3c2F)C[C@H](C)N1 [SPARFLOXACIN]	> 20	> 20
C=CC(=O)Nc1cccc(Nc2nc(Nc3ccc(OCCOC)cc3)ncc2F)c1 [SPEBRUTINIB]	> 20	> 20
CN[C@@H]1[C@H](O)[C@H](NC)[C@H]2O[C@@]3(O)C(=O)C[C@@H](C)O[C@H]3O[C@@H]2[C@H]1O [SPECTINOMYCIN]	> 20	> 20
CC(=O)c1ccc2c(c1)C(=O)C1(CC1)O2 [SPIZOFURONE]	> 20	> 20
O=C(O)c1ccccc1Nc1cccc(OCc2ccc3ccccc3n2)c1 [SR-2640]	> 20	> 20
O=C(Oc1ccc(Br)cc1)N1CCN2CCC1CC2 [SSR180711]	> 20	> 20
C[C@]12CCC(=O)C[C@@H]1CC[C@@H]1[C@@H]2CC[C@]2(C)[C@@H](O)CC[C@@H]12 [STANOLONE]	> 20	> 20
CCCCCCCCCCCCCCCCCC(=O)O [STEARIC ACID]	> 20	> 20
CC(C)(C)C(O)/C=C/c1ccc2c(c1)OCO2 (stereo not given) [STIRIPENTOL]	> 20	> 20
Cc1ccc2c(c1)[C@H]1CN(C)CC[C@H]1N2 [STOBADINE]	> 20	> 20
CN[C@@H]1[C@H](O[C@H]2[C@H](O[C@H]3[C@H](O)[C@@H](O)[C@H](N=C(N)N)[C@@H](O)[C@@H]3N=C(N)N)O[C@@H](C)[C@]2(O)C=O)O[C@@H](CO)[C@H](O)[C@H]1O [STREPTOMYCIN]	> 20	> 20
O=C1C[C@@H]2OCC=C3CN4CC[C@]56c7ccccc7N1[C@H]5[C@H]2[C@H]3C[C@H]46 [STRYCHNINE]	> 20	> 20
NC(=O)OCC(O)c1ccccc1 (stereo not given) [STYRAMATE]	> 20	> 20
O=C(O)CCC(=O)O [SUCCINIC ACID]	> 20	> 20
O=C(O)CCC(=O)Nc1ccc(S(=O)(=O)Nc2nccs2)cc1 [SUCCINYLSULFATHIAZOLE]	> 20	> 20
OC[C@H]1O[C@@](CO)(O[C@H]2O[C@H](CO)[C@@H](O)[C@H](O)[C@H]2O)[C@@H](O)[C@@H]1O [SUCROSE]	> 20	> 20
CN1C(C(=O)Nc2nccs2)=C(O)c2ccccc2S1(=O)=O [SUDOXICAM]	> 20	> 20
CC1(C)[C@H](C(=O)O)N2C(=O)C[C@H]2S1(=O)=O [SULBACTAM]	> 20	> 20
Clc1ccc(CSC(Cn2ccnc2)c2ccc(Cl)cc2Cl)cc1 (stereo not given) [SULCONAZOLE]	> 20	> 20
Nc1ccc(S(=O)(=O)NC(=O)c2ccccc2)cc1 [SULFABENZAMIDE]	> 20	> 20
NC(=O)NS(=O)(=O)c1ccc(N)cc1 [SULFACARBAMIDE]	> 20	> 20

SMILES	IC50 [µM]	IC50 (read-out: pIC50 (converted)) [µM]
CC(=O)NS(=O)(=O)c1ccc(N)cc1 [SULFACETAMIDE]	> 20	> 20
Nc1ccc(S(=O)(=O)Nc2ccc(Cl)nn2)cc1 [SULFACHLORPYRIDAZINE]	> 20	> 20
CCn1ccc(NS(=O)(=O)c2ccc(N)cc2)nc1=O [SULFACYTINE]	> 20	> 20
Nc1ccc(S(=O)(=O)Nc2ncccn2)cc1 [SULFADIAZINE]	> 20	> 20
COc1cc(NS(=O)(=O)c2ccc(N)cc2)nc(OC)n1 [SULFADIMETHOXINE]	> 20	> 20
COc1ncnc(NS(=O)(=O)c2ccc(N)cc2)c1OC [SULFADOXINE]	> 20	> 20
N=C(N)NS(=O)(=O)c1ccc(N)cc1 [SULFAGUANIDINE]	> 20	> 20
Cc1cc(C)nc(NS(=O)(=O)c2ccc(N)cc2)n1 [SULFAMETHAZINE]	> 20	> 20
Cc1nnc(NS(=O)(=O)c2ccc(N)cc2)s1 [SULFAMETHIZOLE]	> 20	> 20
Cc1cc(NS(=O)(=O)c2ccc(N)cc2)no1 [SULFAMETHOXAZOLE]	> 20	> 20
COc1ccc(NS(=O)(=O)c2ccc(N)cc2)nn1 [SULFAMETHOXYPYRIDAZINE]	> 20	> 20
COc1cc(NS(=O)(=O)c2ccc(N)cc2)ncn1 [SULFAMONOMETHOXINE]	> 20	> 20
Nc1ccc(S(N)(=O)=O)cc1 [SULFANILAMIDE]	> 20	> 20
Nc1ccc(S(=O)(=O)Nc2ccnn2-c2ccccc2)cc1 [SULFAPHENAZOLE]	> 20	> 20
Nc1ccc(S(=O)(=O)Nc2ccccn2)cc1 [SULFAPYRIDINE]	> 20	> 20
Nc1ccc(S(=O)(=O)Nc2cnc3ccccc3n2)cc1 [SULFAQUINOXALINE]	> 20	> 20
O=C(O)c1cc(/N=N/c2ccc(S(=O)(=O)Nc3ccccn3)cc2)ccc1O [SULFASALAZINE]	> 20	> 20
Nc1ccc(S(=O)(=O)Nc2nccs2)cc1 [SULFATHIAZOLE]	> 20	> 20
COc1ccc(CCC(C)NCC(O)c2ccc(O)c([S+](C)[O-])c2)cc1 (stereo not given) [SULFINALOL]	> 20	> 20
O=C1C(CC[S+]([O-])c2ccccc2)C(=O)N(c2ccccc2)N1c1ccccc1 (stereo not given) [SULFINPYRAZONE]	> 20	> 20
CC(=O)N(c1onc(C)c1C)S(=O)(=O)c1ccc(N)cc1 [SULFISOXAZOLE ACETYL]	> 20	> 20
Cc1noc(NS(=O)(=O)c2ccc(N)cc2)c1C [SULFISOXAZOLE]	> 20	> 20
CC(C)(C)NCC(O)c1ccc(O)c(CS(C)(=O)=O)c1 (stereo not given) [SULFONTEROL]	> 20	> 20
COc1cc(O)c(C(=O)c2ccccc2)cc1S(=O)(=O)O [SULISOBENZONE]	> 20	> 20
COc1cc([S+](C)[O-])ccc1-c1nc2cccnc2[nH]1 (stereo not given) [SULMAZOLE]	> 20	> 20

SMILES	IC50 [µM]	IC50 (read-out: pIC50 (converted)) [µM]
O=C(O)COc1ccc(CCNS(=O)(=O)c2ccccc2)cc1 [SULOTROBAN]	> 20	> 20
CCN1CCCC1CNC(=O)c1cc(S(N)(=O)=O)ccc1OC (stereo not given) [SULPIRIDE]	> 20	> 20
CCN(CC)CCNC(=O)c1c(C)[nH]c(/C=C2\C(=O)Nc3ccc(F)cc32)c1C [SUNITINIB]	> 20	> 20
CC(C(=O)O)c1ccc(C(=O)c2cccs2)cc1 (stereo not given) [SUPROFEN]	> 20	> 20
CCN(CC)CCNC(=O)N(CCS(=O)(=O)c1ccccc1)C(C)C [SURICAINIDE]	> 20	> 20
Cn1nc(-c2cccc(F)c2)n(C)c1=S [SURITOZOLE]	> 20	> 20
OC1CCCc2nc3ccccc3c(NCc3ccccc3)c21 (stereo not given) [SURONACRINE]	> 20	> 20
Cc1ccc(-n2nccn2)c(C(=O)N2CCN(c3nc4cc(Cl)ccc4o3)CC[C@H]2C)c1 [SUVOREXANT]	> 20	> 20
CN1C(C)(C)CC(OC(=O)CCC(=O)OC2CC(C)(C)N(C)C(C)(C)C2)CC1(C)C [SUXEMERID]	> 20	> 20
CCCCC1(COC(=O)CCC(=O)O)C(=O)N(c2ccccc2)N(c2ccccc2)C1=O [SUXIBUZONE]	> 20	> 20
COc1cc(C(=O)O)cc(OC)c1O [SYRINGIC ACID]	> 20	> 20
Nc1sc2c(c1C(=O)c1ccc(Cl)cc1)CCCC2 [T-62]	> 20	> 20
OC1CN(CCCOCCc2ccc3sccc3c2)C1 [T-817]	> 20	> 20
CC(=O)Nc1ccc(C(=O)Nc2ccccc2N)cc1 [TACEDINALINE]	> 20	> 20
c1ccc2c(c1)CCc1cccc3c1C2CN1CCCCC31 (stereo not given) [TACLAMINE]	> 20	> 20
Nc1c2c(nc3ccccc13)CCCC2 [TACRINE]	> 20	> 20
COc1cc(C)c2c(Oc3cccc(C(F)(F)F)c3)c(OC)cc(NC(C)CCCN)c2n1 (stereo not given) [TAFENOQUINE]	> 20	> 20
Cc1ccc(/C=C/C(=O)NCCCCN2CCN(C(c3ccccc3)c3ccccc3)CC2)cn1 [TAGORIZINE]	> 20	> 20
CCc1nc(-c2cccc(C)c2)c(-c2ccnc(NC(=O)c3ccccc3)c2)s1 [TAK-715]	> 20	> 20
CC(C)[C@H](N)C(=O)N1CCC[C@H]1B(O)O [TALABOSTAT]	> 20	> 20
CN(C(=O)c1ccc(F)cc1C(F)(F)F)C1CCN(c2nnc(-c3ccnn3C)c3ccccc23)CC1 [TALADEGIB]	> 20	> 20
CC1(C)S[C@@H]2[C@H](NC(=O)[C@H](N)c3ccccc3)C(=O)N2[C@H]1C(=O)OC1OC(=O)c2ccccc21 (stereo not given in full) [TALAMPICILLIN]	> 20	> 20
Cn1ncnc1[C@H]1c2n[nH]c(=O)c3cc(F)cc(c23)N[C@@H]1c1ccc(F)cc1 [TALAZOPARIB]	> 20	> 20
CC(C)(C)NCC(O)COc1ccc(NC(=O)NC2CCCCC2)cc1 (stereo not given) [TALINOLOL]	> 20	> 20
C=CCN1CCc2nc(N)sc2CC1 [TALIPEXOLE]	> 20	> 20
